Structures are written as SMILES.

As usually defined, the IC50 is the midpoint of a concentration-inhibition curve. The term EC50 denotes the concentration that produces a half-maximal response. In general, inhibition refers to the relative decrease from the control value, in per cent.

Test [1] concerns the target T1, Human 5-lipoxygenase (5-LOX) (Homo sapiens, UniProt P09917).
T1 construct: purchased Cayman 60402; host or cells: insect cells
T1 sequence (P09917 1-674): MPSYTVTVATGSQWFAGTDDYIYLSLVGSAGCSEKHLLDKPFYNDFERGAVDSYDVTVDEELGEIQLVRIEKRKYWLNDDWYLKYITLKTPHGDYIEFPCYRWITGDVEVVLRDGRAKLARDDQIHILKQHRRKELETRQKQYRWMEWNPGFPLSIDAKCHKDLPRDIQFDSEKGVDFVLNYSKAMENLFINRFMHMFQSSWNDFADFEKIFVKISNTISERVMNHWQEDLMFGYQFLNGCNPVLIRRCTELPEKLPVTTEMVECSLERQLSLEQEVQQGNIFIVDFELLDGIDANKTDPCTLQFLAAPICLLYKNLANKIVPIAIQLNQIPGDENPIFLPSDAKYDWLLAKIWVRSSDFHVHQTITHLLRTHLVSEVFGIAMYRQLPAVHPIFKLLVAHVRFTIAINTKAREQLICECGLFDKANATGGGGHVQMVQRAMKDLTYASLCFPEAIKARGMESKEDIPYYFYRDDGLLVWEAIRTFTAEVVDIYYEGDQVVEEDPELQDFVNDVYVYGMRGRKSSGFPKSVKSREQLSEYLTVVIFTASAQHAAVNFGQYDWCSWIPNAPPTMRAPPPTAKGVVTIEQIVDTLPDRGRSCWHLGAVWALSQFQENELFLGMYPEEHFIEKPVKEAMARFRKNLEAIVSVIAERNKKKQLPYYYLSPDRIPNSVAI
Description: 5-LOX enzyme activity, LTB4 measurement by ELISA. The format is biochemical. The conditions noted are these: ELISA method; read-out: 5LO (IC50). Here is the method:
The activity of compounds against 5-LOX were determined by measuring LTB4 (leukotriene B4) levels and/or by a fluorescence method. Both approaches are outlined in more detail below;
LTB4 Measurement by ELISA:
Human 5-lipoxygenase (5-LOX) (Cayman, Cat #60402) produced in insect cells was pre-incubated with compounds for 5 min at RT in incubation buffer (50 mM Tris-Cl, pH 7.4, 2 mM CaCl2, 0.1 mM ATP, 2% DMSO). Compounds were tested in dose reponse from 0.5 nM to 10 uM. The enzymatic reaction was started by adding arachidonic acid to a final concentration of 3 uM. After 5 min of incubation at 25° C., the reaction was stopped by adding H2O2 to a final concentration of 1 mM. LTB4 levels were quantified using a LTB4 EIA kit (Cayman, Cat #520111) as instructed.

The next test deals with T2, human 5-LOX (Homo sapiens, UniProt P09917).
T2 construct: purchased Cayman 60402; host or cells: insect cells (lysate)
T2 sequence (P09917 1-674): T1 sequence (P09917 1-674)
Description: 5-LOX enzyme activity, fluorescence method (5-HPETE, H2DCFDA). The test is classed as biochemical. To be noted: read-out: 5-LO (IC50). A digest of the protocol:
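Fluorescence-based read-out, run entirely at room temperature. Enzyme mixture was exposed to a dose range of compound from 0.5 nM to 10 uM for 5 min before ATP and arachidonic acid were added to final levels of 100 uM and 3 uM.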

Test [2] deals with Rat basophilic leukemia (RBL) cells. In words: LTB4 secretion assay in RBL (rat basophilic leukemia cells). The test is classed as cell-based. To be noted: Rattus norvegicus, RBL. A digest of the protocol: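 LTB4 released into supernatant was measured by EIA after 10 min at 37 °C with arachidonic acid (2.5 uM final) and calcium ionophore A23187 (5 uM final). Before stimulation, cells plated 2×10^4/well overnight received compound doses (5 nM to 100 uM) for 15 min in 0.5% FBS medium.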

The test system of the next test is Rat whole blood (RWB). In words: LTB4 secretion assay in RWB (rat whole blood). To be noted: Rattus norvegicus. The test is classed as cell-based. A digest of the protocol:
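LTB4 release was measured by EIA in supernatants of pooled, sodium heparin rat blood (male Sprague Dawley, 6-9 weeks) diluted 1:1 with RPMI. Compounds (2.5 nM to 50 uM) were added 15 min before A23187 (10 uM final), with 10 min stimulation at 37 °C before ice-cold PBS quench.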

In the next test the test system is HeLa S3 cells. In words: PGE2 inhibition assay (HTRF) in TNF-α stimulated HeLa S3 cells. The conditions noted are these: Homo sapiens; PGE2, 10 uM compound, HeLa S3 stimulated with TNF-α. The test is classed as cell-based. On the procedure:
Human epitheloid cervix carcinoma HeLa S3 cells (2×10^6cells/ml) were seeded with modified F-12K buffer medium pH 7.4 in tissue culture plate and incubated for overnight at 37° C. and 5% CO2. Then medium was changed into new medium contained 10 uM testing compounds or 0.1% DMSO and incubated overnight. After incubation, cells were stimulated with 30 nM TNF-α (Tumor necrosis factor-α) for 16 h. For determination of PGE2, the supernatant was measured by PGE2 HTRF (Homogeneous Time Resolved Fluorescence) assay kit Inhibition of PGE2 by compounds is calculated as a percentage of activity in the presence of drug versus the activity in the stimulator TNF-α.

The subject of a further test is Brown Norway rats. In words: OVA-induced airway inflammation model in Brown Norway rats. The format is in vivo, rat. The conditions noted are these: 25, 50, 100 mg/kg p.o. BID, Day 19-21. From the text:
The objective of this study is to determine the efficacy of compounds in the lungs of ovalbumin (OVA) induced in Brown Norway rats. As with most models of induced allergic asthma, animals are systemically sensitized to specific antigens and then, after a period of time, challenged with the same allergen administered via the airway. Ovalbumin had been used as the standard allergen to sensitize and challenge animals in this study.
Thirty (30) male Brown Norway rats were randomized into 5 groups on the basis of body weight. For sensitization, 1% OVA in PBS solution was mixed with alum solution (with volume ratio of 1:9). All rats in groups 1-5 were sensitized by i.p injection (1 mL/rat) of 1% OVA-alum sensitization solution on day 1, 2 and 3. At day 21, rats in groups 1-5 were challenged with 1% OVA in PBS solution with aerosolizing dosing system for 20 min.
Test compounds were administered by p.o. from days 19-21 of the study as per schedule below:
Group 1: sensitized-vehicle,
Group 2: reference drug dexamethasone, 0.3 mg/kg, p.o., Day 19-21, BID,
Group 3: compound 211, 25 mg/kg, p.o., Day 19-21, BID,
Group 4: compound 211, 50 mg/kg, p.o., Day 19-21, BID,
Group 5: compound 211, 100 mg/kg, p.o., Day 19-21, BID,
On day 22, bronchoalveolar lavage and lung tissues were harvested. Total cell number and differential cell counts in BALF, leukotriene B4 (LTB4) in BALF and lung tissue, histopathology of lung by H&E staining will be evaluated.

Regarding `Nc1ccc2[nH]c(NCc3ccc(Oc4ccc(Cl)cc4)cn3)nc2c1` [Compound 14], the IC50 (in test [1]; at human 5-LOX) was less than 1 µM each time. The EC50 (in test [2]; in the test on Rat whole blood (RWB)) was less than 10 µM throughout.
For `Nc1ccc2nc(N)n(CCOc3ccc(OC(F)(F)F)cc3)c2c1` [Compound 48], the IC50 is 1 to 20 µM in test [1] and less than 1 µM at human 5-LOX. The EC50 (in test [2]; with Rat whole blood (RWB)) was less than 10 µM in each case.
As to `Nc1ccc2c(c1)nc(N)n2CCOc1ccc(OC(F)(F)F)cc1` [Compound 49], the IC50 is 1 to 20 µM in test [1] and more than 10 µM at human 5-LOX. Further, the figures for the EC50 (in test [2]; in the test with Rat whole blood (RWB)) were less than 10 µM and 10 to 20 µM, respectively.
In turn, `Cn1c(NCc2ccc(Oc3ccc(Cl)cn3)cc2)nc2ccc(NC3COC3)cc21` [Compound 211] returned an inhibition at 10 µM in the test with HeLa S3 cells of 40 to 70%. Moreover, the “LTB4 in BALF and Lung” value in the test on Brown Norway rats was “reduced”. Besides, the “increase of inflammatory cells including total cell and eosinophils” value in the test with Brown Norway rats (BALF) is reported as “significantly reduced”. In addition, the inflammation cell infiltration result in the test with Brown Norway rats (lung histopathology) is on record as “significantly reduced”. Further, the IC50 on human 5-LOX was less than 1 µM. For the same compound, the EC50 (in test [2]; with Rat whole blood (RWB)) was less than 10 µM in each case.

The values above are taken from patent US11447486B2, “2-amino-benzimidazole derivatives and their use as 5-lipoxygenase and/or prostaglandin E synthase inhibitors” (INSTITUT PASTEUR KOREA, priority 2014, dated 2022).
